From patent publication US7202280B2, “Methods for the treatment and prevention of pancreatitis and for induction of liver regeneration” (priority 2002, dated 2007)

Columns and labels:
[1] = test system: syngenic and UKU181 transgenic mice; test: Plasma α-amylase and ALAT in syngenic and transgenic mice after analogue injection; format: in vivo, mouse; settings: 24 h before sacrifice
Protocol: (§1) α-methylspermidine, Bis-α-methylspermine and α-methylspermine were administered in saline. […] The data are expressed as means ±S.D. For statistical analysis, the two-tailed Student's t test was used.

[2] = test system: syngenic and metallothionein-SSAT mice; test: Hepatic, pancreatic and renal polyamine concentration in syngenic and metallothionein-SSAT mice after analogue; format: in vivo, mouse; settings: Sg (syngenic) mice, 24 h before sacrifice
Protocol: as §1

[3] = Tg (transgenic) mice, 12.5 mg/kg
[4] = Tg (transgenic) mice, 37.5 mg/kg

Q: What does the source list for CC(N)CCNCCCCNCCCN (stereo not drawn) [α-methylspermine, 1-methylspermine]?
A: Plasma ALAT ([1]; Sg (syngenic) mice, 12.5 mg/kg): 54.33 ± 4.16 U/dm^3; Plasma α-amylase ([1]; Sg (syngenic) mice, 12.5 mg/kg): 2352.00 ± 206.37 U/dm^3; Plasma ALAT ([1]; Sg (syngenic) mice, 25 mg/kg): 43.67 ± 4.04 U/dm^3; Plasma α-amylase ([1]; Sg (syngenic) mice, 25 mg/kg): 2645.67 ± 161.87 ^+ U/dm^3; Plasma ALAT ([1]; Sg (syngenic) mice, 37.5 mg/kg): 47.67 ± 13.43 U/dm^3; Plasma α-amylase ([1]; Sg (syngenic) mice, 37.5 mg/kg): 2610.67 ± 144.67 U/dm^3; Plasma ALAT ([1]; Sg (syngenic) mice, 50 mg/kg): 49.00 ± 2.83 U/dm^3; Plasma α-amylase ([1]; Sg (syngenic) mice, 50 mg/kg): 2512.33 ± 275.71 U/dm^3; Plasma ALAT [1, 3]: 58.67 ± 7.77 U/dm^3; Plasma α-amylase [1, 3]: 2675.67 ± 305.64 U/dm^3; Plasma ALAT ([1]; Tg (transgenic) mice, 25 mg/kg): 44.67 ± 5.69 U/dm^3; Plasma α-amylase ([1]; Tg (transgenic) mice, 25 mg/kg): 2044.67 ± 112.93 U/dm^3; Plasma ALAT [1, 4]: 37.00 ± 2.83 U/dm^3; Plasma α-amylase [1, 4]: 2450.00 ± 410.12 U/dm^3; Plasma ALAT ([1]; Tg (transgenic) mice, 50 mg/kg): 41.33 ± 3.79 U/dm^3; Plasma α-amylase ([1]; Tg (transgenic) mice, 50 mg/kg): 2667.00 ± 297.24 U/dm^3; hepatic concentration, α-Methylspermine ([2]; 12.5 mg/kg): 470.60 pmoles/mg tissue wet weight; hepatic polyamine concentration, N^1-Acetylspermidine ([2]; 12.5 mg/kg): 37.49 pmoles/mg tissue wet weight; hepatic polyamine concentration, Putrescine ([2]; 12.5 mg/kg): 39.46 pmoles/mg tissue wet weight; hepatic polyamine concentration, Spermidine ([2]; 12.5 mg/kg): 669.94 pmoles/mg tissue wet weight; hepatic polyamine concentration, Spermine ([2]; 12.5 mg/kg): 568.21 pmoles/mg tissue wet weight; pancreatic polyamine concentration, N^1-Acetylspermidine ([2]; 12.5 mg/kg): 56.32 pmoles/mg tissue wet weight; pancreatic polyamine concentration, N^8-Acetylspermidine ([2]; 12.5 mg/kg): 17.17 pmoles/mg tissue wet weight; pancreatic polyamine concentration, Putrescine ([2]; 12.5 mg/kg): 80.74 pmoles/mg tissue wet weight; pancreatic polyamine concentration, Spermidine ([2]; 12.5 mg/kg): 7952.04 pmoles/mg tissue wet weight; pancreatic polyamine concentration, Spermine ([2]; 12.5 mg/kg): 1048.44 pmoles/mg tissue wet weight; renal concentration, α-Methylspermine ([2]; 12.5 mg/kg): 197.48 ± 6.80 pmoles/mg tissue wet weight; renal polyamine concentration, N^1-Acetylspermidine ([2]; 12.5 mg/kg): 46.16 pmoles/mg tissue wet weight; renal polyamine concentration, N^8-Acetylspermidine ([2]; 12.5 mg/kg): 24.91 pmoles/mg tissue wet weight; renal polyamine concentration, Putrescine ([2]; 12.5 mg/kg): 48.17 pmoles/mg tissue wet weight; renal polyamine concentration, Spermidine ([2]; 12.5 mg/kg): 312.55 pmoles/mg tissue wet weight; renal polyamine concentration, Spermine ([2]; 12.5 mg/kg): 247.41 pmoles/mg tissue wet weight; hepatic concentration, α-Methylspermine ([2]; 25 mg/kg): 420.20 pmoles/mg tissue wet weight; hepatic polyamine concentration, Putrescine ([2]; 25 mg/kg): 44.18 pmoles/mg tissue wet weight; hepatic polyamine concentration, Spermidine ([2]; 25 mg/kg): 1015.51 pmoles/mg tissue wet weight; hepatic polyamine concentration, Spermine ([2]; 25 mg/kg): 411.06 pmoles/mg tissue wet weight; pancreatic polyamine concentration, N^1-Acetylspermidine ([2]; 25 mg/kg): 19.45 pmoles/mg tissue wet weight; pancreatic polyamine concentration, N^8-Acetylspermidine ([2]; 25 mg/kg): 24.47 pmoles/mg tissue wet weight; pancreatic polyamine concentration, Putrescine ([2]; 25 mg/kg): 50.98 pmoles/mg tissue wet weight; pancreatic polyamine concentration, Spermidine ([2]; 25 mg/kg): 5421.66 pmoles/mg tissue wet weight; pancreatic polyamine concentration, Spermine ([2]; 25 mg/kg): 729.10 pmoles/mg tissue wet weight; renal concentration, α-Methylspermine ([2]; 25 mg/kg): 228.87 ± 6.44 pmoles/mg tissue wet weight; renal polyamine concentration, N^1-Acetylspermidine ([2]; 25 mg/kg): 59.48 pmoles/mg tissue wet weight; renal polyamine concentration, N^8-Acetylspermidine ([2]; 25 mg/kg): 25.80 pmoles/mg tissue wet weight; renal polyamine concentration, Putrescine ([2]; 25 mg/kg): 122.64 pmoles/mg tissue wet weight; renal polyamine concentration, Spermidine ([2]; 25 mg/kg): 215.41 pmoles/mg tissue wet weight; renal polyamine concentration, Spermine ([2]; 25 mg/kg): 272.18 pmoles/mg tissue wet weight; hepatic concentration, α-Methylspermine ([2]; 37.5 mg/kg): 510.72 pmoles/mg tissue wet weight; hepatic polyamine concentration, Spermidine ([2]; 37.5 mg/kg): 830.89 pmoles/mg tissue wet weight; hepatic polyamine concentration, Spermine ([2]; 37.5 mg/kg): 485.75 pmoles/mg tissue wet weight; pancreatic polyamine concentration, Putrescine ([2]; 37.5 mg/kg): 36.15 pmoles/mg tissue wet weight; pancreatic polyamine concentration, Spermidine ([2]; 37.5 mg/kg): 5806.20 pmoles/mg tissue wet weight; pancreatic polyamine concentration, Spermine ([2]; 37.5 mg/kg): 804.72 pmoles/mg tissue wet weight; renal concentration, α-Methylspermine ([2]; 37.5 mg/kg): 245.67 ± 38.85 pmoles/mg tissue wet weight; renal polyamine concentration, N^1-Acetylspermidine ([2]; 37.5 mg/kg): 30.29 pmoles/mg tissue wet weight; renal polyamine concentration, N^8-Acetylspermidine ([2]; 37.5 mg/kg): 24.30 pmoles/mg tissue wet weight; renal polyamine concentration, Putrescine ([2]; 37.5 mg/kg): 59.01 pmoles/mg tissue wet weight; renal polyamine concentration, Spermidine ([2]; 37.5 mg/kg): 244.82 pmoles/mg tissue wet weight; renal polyamine concentration, Spermine ([2]; 37.5 mg/kg): 207.72 pmoles/mg tissue wet weight; hepatic concentration, α-Methylspermine ([2]; 50 mg/kg): 521.41 pmoles/mg tissue wet weight; hepatic polyamine concentration, N^1-Acetylspermidine ([2]; 50 mg/kg): 45.74 pmoles/mg tissue wet weight; hepatic polyamine concentration, N^8-Acetylspermidine ([2]; 50 mg/kg): 15.33 pmoles/mg tissue wet weight; hepatic polyamine concentration, Putrescine ([2]; 50 mg/kg): 22.71 pmoles/mg tissue wet weight; hepatic polyamine concentration, Spermidine ([2]; 50 mg/kg): 780.24 pmoles/mg tissue wet weight; hepatic polyamine concentration, Spermine ([2]; 50 mg/kg): 419.39 pmoles/mg tissue wet weight; pancreatic polyamine concentration, N^8-Acetylspermidine ([2]; 50 mg/kg): 19.89 pmoles/mg tissue wet weight; pancreatic polyamine concentration, Putrescine ([2]; 50 mg/kg): 107.70 pmoles/mg tissue wet weight; pancreatic polyamine concentration, Spermidine ([2]; 50 mg/kg): 6839.92 pmoles/mg tissue wet weight; pancreatic polyamine concentration, Spermine ([2]; 50 mg/kg): 811.45 pmoles/mg tissue wet weight; renal concentration, α-Methylspermine ([2]; 50 mg/kg): 263.69 ± 49.92 pmoles/mg tissue wet weight; renal polyamine concentration, N^1-Acetylspermidine ([2]; 50 mg/kg): 48.23 pmoles/mg tissue wet weight; renal polyamine concentration, N^8-Acetylspermidine ([2]; 50 mg/kg): 21.09 pmoles/mg tissue wet weight
